Tested on: P12-Ichikawa
Assay: cell viability relative to DMSO control; higher = less cytotoxic
Conditions: 48 h
Outline: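 Library compounds in DMSO were pin-dosed in an 11-point threefold series (47 μM to 0.79 nM) onto leukemia cells in 1536-well plates (5 μl). Plates held 500 cells/well of NOMO1 or SEM or 1000 cells/well of P12-Ichikawa, each adapted for at least four passages in each medium. Luminescence was read with CellTiter-Glo One after 48 h at 37°C. Viability means the per-plate percentage relative to DMSO wells, using cell-free wells as background.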

[1] = HPLM + 10% dialyzed FBS, 0.000781 µM
[2] = HPLM + 10% dialyzed FBS, 0.00234 µM
[3] = HPLM + 10% dialyzed FBS, 0.00702 µM
[4] = HPLM + 10% dialyzed FBS, 0.0211 µM
[5] = HPLM + 10% dialyzed FBS, 0.0632 µM
[6] = HPLM + 10% dialyzed FBS, 0.19 µM
[7] = HPLM + 10% dialyzed FBS, 0.569 µM
[8] = HPLM + 10% dialyzed FBS, 1.71 µM
[9] = HPLM + 10% dialyzed FBS, 5.12 µM
[10] = HPLM + 10% dialyzed FBS, 15.4 µM
[11] = HPLM + 10% dialyzed FBS, 46.1 µM
[12] = RPMI 5 mM glucose + 10% FBS, 0.000781 µM
[13] = RPMI 5 mM glucose + 10% FBS, 0.00234 µM
[14] = RPMI 5 mM glucose + 10% FBS, 0.00702 µM
[15] = RPMI 5 mM glucose + 10% FBS, 0.0211 µM
[16] = RPMI 5 mM glucose + 10% FBS, 0.0632 µM
[17] = RPMI 5 mM glucose + 10% FBS, 0.19 µM
[18] = RPMI 5 mM glucose + 10% FBS, 0.569 µM
[19] = RPMI 5 mM glucose + 10% FBS, 1.71 µM
[20] = RPMI 5 mM glucose + 10% FBS, 5.12 µM
[21] = RPMI 5 mM glucose + 10% FBS, 15.4 µM
[22] = RPMI 5 mM glucose + 10% FBS, 46.1 µM
[23] = RPMI 5 mM glucose + 10% dialyzed FBS, 0.000781 µM
[24] = RPMI 5 mM glucose + 10% dialyzed FBS, 0.00234 µM
[25] = RPMI 5 mM glucose + 10% dialyzed FBS, 0.00702 µM
[26] = RPMI 5 mM glucose + 10% dialyzed FBS, 0.0211 µM
[27] = RPMI 5 mM glucose + 10% dialyzed FBS, 0.0632 µM
[28] = RPMI 5 mM glucose + 10% dialyzed FBS, 0.19 µM
[29] = RPMI 5 mM glucose + 10% dialyzed FBS, 0.569 µM
[30] = RPMI 5 mM glucose + 10% dialyzed FBS, 1.71 µM
[31] = RPMI 5 mM glucose + 10% dialyzed FBS, 5.12 µM
[32] = RPMI 5 mM glucose + 10% dialyzed FBS, 15.4 µM
[33] = RPMI 5 mM glucose + 10% dialyzed FBS, 46.1 µM

| SMILES | cell viability [1] [%] | cell viability [2] [%] | cell viability [3] [%] | cell viability [4] [%] | cell viability [5] [%] | cell viability [6] [%] | cell viability [7] [%] | cell viability [8] [%] | cell viability [9] [%] | cell viability [10] [%] | cell viability [11] [%] | cell viability [12] [%] | cell viability [13] [%] | cell viability [14] [%] | cell viability [15] [%] | cell viability [16] [%] | cell viability [17] [%] | cell viability [18] [%] | cell viability [19] [%] | cell viability [20] [%] | cell viability [21] [%] | cell viability [22] [%] | cell viability [23] [%] | cell viability [24] [%] | cell viability [25] [%] | cell viability [26] [%] | cell viability [27] [%] | cell viability [28] [%] | cell viability [29] [%] | cell viability [30] [%] | cell viability [31] [%] | cell viability [32] [%] | cell viability [33] [%] |
| --- | --- | --- | --- | --- | --- | --- | --- | --- | --- | --- | --- | --- | --- | --- | --- | --- | --- | --- | --- | --- | --- | --- | --- | --- | --- | --- | --- | --- | --- | --- | --- | --- | --- |
| NC\1=N\C(=O)N(\C=C1F)[C@H]2C[C@H](O)[C@@H](CO)O2 | 118 | 127 | 104 | 101 | 90.6 | 65.2 | 43.7 | 45.4 | 37 | 27.9 | 36.9 | – | – | – | – | – | – | – | – | – | – | – | – | – | – | – | – | – | – | – | – | – | – |
| CC(C)(O)C(=O)Nc1ccc([N+](=O)[O-])c(C(F)(F)F)c1 | 103 | 109 | 124 | 119 | 118 | 123 | 119 | 119 | 85.6 | 24 | 11.6 | 95.7 | 108 | 115 | 115 | 122 | 113 | 119 | 125 | 87 | 29.5 | 13.8 | 94.1 | 127 | 116 | 121 | 125 | 130 | 139 | 136 | 127 | 74.8 | 18.1 |
| CN(C(Cc1ccc(O[S+](=O)([O-])c2cccc3cnccc23)cc1)C(=O)N1CCN(c2ccccc2)CC1)[S+](=O)([O-])c1cccc2cnccc12 (configuration not stated) | 102 | 103 | 106 | 110 | 114 | 105 | 114 | 102 | 93.1 | 89.2 | 70.5 | 107 | 110 | 109 | 106 | 108 | 103 | 103 | 97.7 | 90.6 | 71.8 | 57.3 | 104 | 108 | 105 | 121 | 109 | 105 | 113 | 97.8 | 102 | 84.8 | 58.7 |
| COc1ccc2[nH]cc(CCNC(C)=O)c2c1 | – | – | – | – | – | – | – | – | – | – | – | 125 | 125 | 112 | 121 | 122 | 123 | 112 | 111 | 109 | 108 | 112 | – | – | – | – | – | – | – | – | – | – | – |
| CCCCc1nc2cc(/C=C/C(=O)NO)ccc2n1CCN(CC)CC | 93 | 98.5 | 103 | 95.9 | 95.7 | 104 | 90.1 | 83.7 | 3.65 | 2.43 | 4.19 | 86.9 | 96.3 | 96.2 | 83.5 | 101 | 91.3 | 95.7 | 85.7 | 12.3 | 2.22 | 3.51 | 95.7 | 95.6 | 93.5 | 90.4 | 100 | 101 | 98.6 | 79.5 | 17.6 | 1.97 | 3.51 |
| CC[C@@H]1C(=O)N(C)c2cnc(Nc3ccc(C(=O)NC4CCN(C)CC4)cc3OC)nc2N1C1CCCC1 | 116 | 123 | 112 | 84.8 | 13.1 | 13.3 | 13.4 | 16 | 16.5 | 11.4 | 4.01 | 126 | 123 | 116 | 107 | 15.6 | 15.3 | 17.5 | 15.4 | 15 | 12.9 | 4.84 | 116 | 124 | 121 | 114 | 19.4 | 18.7 | 19.7 | 20.8 | 21.2 | 17.8 | 4.69 |
| O=[S+]([O-])(NCCNC/C=C/c1ccc(Br)cc1)c1cccc2cnccc12 | 108 | 110 | 102 | 105 | 107 | 107 | 106 | 100 | 97 | 95.3 | 95.8 | 99.1 | 108 | 96.4 | 89 | 97.6 | 108 | 102 | 99.2 | 96.6 | 81.5 | 72 | 95.9 | 95.6 | 103 | 96.2 | 99.6 | 101 | 102 | 103 | 95.8 | 77 | 77.8 |
| CS[C@H]1SC[C@@H]2C(=O)N(C)[C@H](C(C)C)C(=O)OC[C@H](NC(=O)c3cnc4ccccc4n3)C(=O)N[C@H](C)C(=O)N(C)[C@H]1C(=O)N(C)[C@H](C(C)C)C(=O)OC[C@H](NC(=O)c1cnc3ccccc3n1)C(=O)N[C@H](C)C(=O)N2C | 93.5 | 97.9 | 97.7 | 59 | 6.91 | 9.39 | 11.9 | 11.9 | 9.92 | 9.92 | 13.2 | 88 | 98.9 | 74.9 | 44.9 | 6.52 | 7.51 | 8.83 | 9.76 | 7.33 | 7.34 | 6.52 | 88.5 | 91.2 | 68.6 | 29.6 | 6.86 | 8.69 | 9.15 | 9.6 | 8.79 | 11.4 | 11.8 |
| Cc1c(C(=O)c2cccc3ccccc23)c2cccc3c2n1[C@H](CN1CCOCC1)CO3 | 98.5 | 93.4 | 93.5 | 97 | 89.5 | 90.2 | 91.4 | 91.9 | 80.8 | 82 | 26.2 | 83.1 | 76.7 | 81.9 | 78.4 | 87.8 | 77.5 | 80.1 | 84.5 | 76.3 | 74.7 | 12.9 | 86 | 92.5 | 85.4 | 82.6 | 94.2 | 86.9 | 90.2 | 84.6 | 81 | 78.6 | 28.5 |
| CC(C)n1cnc2c(NCCc3ccc(O)cc3)nc(-c3csc4ccccc34)nc21 | 105 | 111 | 109 | 114 | 119 | 115 | 107 | 117 | 24.9 | 6.01 | 2.93 | 106 | 108 | 116 | 107 | 116 | 112 | 116 | 129 | 125 | 53.5 | 3.44 | 98.3 | 109 | 112 | 112 | 119 | 114 | 118 | 119 | 130 | 38.6 | 2.43 |
| CCOC(=O)N[C@@H]1CC[C@@H]2[C@@H](C1)C[C@H]1C(=O)O[C@H](C)[C@H]1[C@H]2/C=C/c1ccc(-c2cccc(F)c2)cn1 | 113 | 114 | 115 | 114 | 114 | 117 | 113 | 120 | 120 | 115 | 98.5 | – | – | – | – | – | – | – | – | – | – | – | 114 | 116 | 124 | 122 | 123 | 120 | 123 | 122 | 120 | 119 | 68.4 |
| COc1cc2ncnc(Nc3cccc(Cl)c3)c2cc1OC | 112 | 107 | 97.3 | 99.6 | 89.2 | 73 | 68.3 | 44.8 | 46.1 | 45.4 | 3.51 | 97.7 | 99.1 | 98.5 | 107 | 87.9 | 66.8 | 69.1 | 32.7 | 25.1 | 22.9 | 19 | 111 | 102 | 109 | 106 | 90.8 | 72.1 | 69.4 | 32 | 25.1 | 23 | 15.7 |
| CC(C)CC(N(C)C)C1(c2ccc(Cl)cc2)CCC1 (configuration not stated) | 114 | 120 | 105 | 113 | 114 | 111 | 105 | 86.3 | 57.7 | 54.9 | 34 | 109 | 115 | 113 | 109 | 106 | 112 | 94 | 82.2 | 51.4 | 48.7 | 49.1 | 106 | 114 | 106 | 107 | 111 | 110 | 86.7 | 76.2 | 49.9 | 45.3 | 41.6 |
| C[C@H]1Oc2cc(cnc2N)-c2c(nn(C)c2C#N)CN(C)C(=O)c2ccc(F)cc21 | 118 | 120 | 119 | 120 | 120 | 124 | 122 | 110 | 112 | 112 | 96.3 | 120 | 122 | 123 | 113 | 123 | 119 | 119 | 112 | 114 | 114 | 105 | – | – | – | – | – | – | – | – | – | – | – |
| CCN(CC)CCCC(C)Nc1nc(C)cc(Nc2ccc3nc(C)cc(N)c3c2)n1 (configuration not stated) | 101 | 107 | 109 | 117 | 122 | 122 | 126 | 115 | 130 | 114 | 118 | 108 | 109 | 104 | 121 | 117 | 126 | 124 | 112 | 129 | 107 | 112 | 107 | 113 | 111 | 120 | 117 | 123 | 126 | 124 | 126 | 118 | 101 |
| CCOC(=O)[C@H]1O[C@@H]1C(=O)N[C@@H](CC(C)C)C(=O)NCCC(C)C | 123 | 114 | 121 | 127 | 123 | 123 | 117 | 116 | 117 | 108 | 106 | 128 | 121 | 119 | 118 | 124 | 115 | 127 | 116 | 115 | 106 | 92.9 | 116 | 119 | 115 | 121 | 124 | 119 | 122 | 119 | 118 | 109 | 102 |
